Article PMC6698794, “Catalytic Knockdown of miR-21 by Artificial Ribonuclease: Biological Performance in Tumor Model” (Frontiers in Pharmacology, 2019)

Assays:
miR-21 = test: Cleavage of 5′-[32P]-labeled miR-21 by miR-21-miRNase and/or RNase H in multiple turnover conditions; assay type: biochemical; conditions: for Level of cleavage of miR-21 by miRNase alone: 5- or 10-fold excess of target; for Level of cleavage of miR-21 by miRNase alone / τ/2, half-life time of miR-21: miRNase 5 µM, 37°C
Protocol: Unlabeled miR-21 (10 µM, 25 µM, or 50 µM) and 10^5 cpm (Cherenkov’s counting) of [^32P]-miR-21 was incubated at 37°C with either miR-21-miRNase (5 µM) or RNase H (100 U/ml, plus 5 µM of either h-ODN or miR-21-miRNase) in buffer (20 mM Tris-HCl, pH 7.8, 40 mM KCl, 8 mM MgCl2, 1 mM DTT). Reactions were quenched by precipitation of RNA with 2% LiClO4 in acetone, and RNA cleavage products quantified in dried gels as described previously ([Patutina et al., 2017a]) using Molecular Imager FX and Quantity One software.
Figure 4 Cleavage of 5’-[^32P]-labeled miR-21 by miR-21-miRNase and/or RNase H. Autoradiographs of 18% polyacrylamide/8 M urea gel, showing the patterns of cleavage of miR-21 at its 2- (A), 5- (C), and 10-fold (E) molar excess over miR-21-miRNase or h-ODN. […] Duplexes formed by 5′-[^32P]-miR-21 (10, 25, and 50 µM) and h-ODN or miRNase (5 µM) were incubated at 37°C for 24–72 h. Lanes Im and T1: imidazole ladder and partial RNA digestion with RNase T1, respectively; “control”: RNA was incubated in the absence of oligonucleotide or conjugate and in the presence of RNase H (100 U/ml). Diagrams (B), (D), and (F) show time dependency of cleavage of miR-21 by miR-21-miRNase alone, by a synergetic action of miR-21-miRNase and RNase H, or by RNase H (100 U/ml) alone when miR-21 was in a complex with h-ODN at 2-, 5- and 10-fold molar excess of miR-21 over miR-21-miRNase or h-ODN, respectively. (G) Positions of miR-21 cleavage induced by miR-21-miRNase (red arrows), RNase H in the duplex with h-ODN (black arrows), and by combination of miR-21-miRNase and RNase H. (H) The hypothetical representation of miR-21 cleavage by a combination of miRNase and RNase H.

PTEN = PTEN protein level in transfected RLS40 cells by Western blot; assay type: cell-based, mouse; conditions: 1 µM, 72 h after transfection, GAPDH internal control
Protocol: RLS40 ascites were taken from CBA mice intraperitoneally injected with tumor cells (2 × 10^6 in 0.2 ml buffered saline) into their abdominal cavities. RLS40 cells, isolated from ascites fluid by filtration through LSM were divided into seven portions: 1) untreated cells; 2) the cells incubated with Lipofectamine; the cells transfected with 1 µM of 3) h-ODN, 4) 2′-OMe, 5) Inh, 6) miR-21-miRNase, or 7) luc-POC each. After 4 h of transfection, cell suspensions (0.1 ml, 2 × 10^6 cells) were intramuscularly inoculated into the right lower limb of CBA mice for solid tumor development. As soon as tumors began to be palpable, the tumor volumes were measured every 2–3 days using calipers. Tumor volumes were calculated as V = (π/6 × length × width × height). Hepatic index was estimated as (liver weight/mouse weight) × 100% and as 5.0% for healthy CBA mice. Tumor doubling time (DT) was estimated as DT = (t − t0) × ln 2/(ln V − ln V0), where (t − t0) indicates the length of time between two measurements of tumor size and V0 and V denote the tumor volume at two points of the measurement ([Ozono et al., 2004]).
Supplementary Figure 3. Expression level of miR-21 and PTEN and PDCD4 protein level in RLS40 cells after transfection with 1 µM of luc-POC or miR-21-miRNase using LipofectamineTM 2000. (A) Expression level of miR-21 24 h after transfection. The expression of miRNAs was normalized to U6. […]

B16 melanoma cells = test: Annexin V-FITC/PI apoptosis assay; assay type: cell-based, mouse
Protocol: B16 cells were pre-seeded (2 × 10^5 per well of 24-well plates) in DMEM/10% FBS a day before transfection. Medium was replaced with serum-free DMEM, prior to incubation for 4 h with h-ODN, 2′-OMe, Inh (hsa-miR-21 5 p inhibitor, Ambion, USA), miR-21-miRNase, or luc-POC, each (0.1 or 1 µM) pre-complexed with Lipofectamine (Thermo Fisher Scientific, USA) in Opti-MEM medium (Thermo Fisher Scientific, USA) according to manufacturer’s instructions, then cells were cultivated in fresh culture standard medium for 24–72 h.
At 24, 48, and 72 h after transfection, cells were harvested, washed twice with PBS, resuspended in Binding Buffer to a density of 2–5 × 10^5/ml, and incubated with annexin V-FITC and propidium iodide (PI) (ab14085, Abcam, UK) in the dark at room temperature for 15 min, prior to flow cytometry analysis (Novocyte CEA Biosciences, USA).
Figure 2 Biological effect of the miR-21-specific miRNase. (A) Apoptotic profile of B16 melanoma cells after transfection with miR-21-miRNase and control luc-POC. Cytofluorimetric analysis of cells after staining with Annexin V-FITC/PI 48 h after transfection with miRNase or luc-POC (1 µM) in complex with Lipofectamine2000. Q1—population of living cells; Q2—Annexin V-FITC+/PI-, early apoptosis; Q3—Annexin V-FITC+/PI+, late apoptosis; Q4—Annexin V-FITC-/PI+, necrosis. (B) Average percentage of apoptotic (early and late apoptosis) and necrotic B16 cell population. Data represent mean ± s.e. of four independent experiments.(C, D) Invasion activity of B16 cells after incubation with Lipofectamine (LF) alone or treated with either hairpin antisense oligonucleotide (h-ODN), hairpin 2′-OMe oligonucleotide (2′-OMe), commercial miR-21 inhibitor (Inh), miR-21-miRNase, and control conjugate (luc-POC) in the concentration of 1 µM. Migration of cells was recorded in real time using the xCELLigence cell analysis system. Control—B16 cells without treatment. Data represent mean ± s.d. of four independent experiments.

Substance: acetyl-[(LeuArg)2Gly]2-aminohexyl-AGTCTGATAAGCTACAAGTCAGCGAAAGCTGACTTG [miR-21-miRNase, peptide acetyl-[(LeuArg)2Gly]2 conjugated through aminohexyl linker to 5′-end of miR-21-targeted hairpin oligodeoxyribonucleotide]
- Factor by which RNase H elevated cleavage of miR-21 (from τ/2) (miR-21; 2-fold excess of miR-21): 14.9 times
- Factor by which RNase H enhanced the catalytic turnover (miR-21; 2-fold excess of miR-21): 15.6 times
- Factor by which RNase H elevated cleavage of miR-21 (from τ/2) (miR-21; 5-fold excess of miR-21): 3.0 times
- Factor by which RNase H enhanced the catalytic turnover (miR-21; 5-fold excess of miR-21): 7.0 times
- Factor by which RNase H elevated cleavage of miR-21 (from τ/2) (miR-21; 10-fold excess of miR-21): 2.4 times
- Factor by which RNase H enhanced the catalytic turnover (miR-21; 10-fold excess of miR-21): 4.6 times
- Incubation time to complete (∼100%) RNA degradation (miR-21; miR-21-miRNase 5 µM with RNase H 100 U/ml, 2-fold excess of miR-21): 8 h
- Incubation time to complete RNA degradation (miR-21; miR-21-miRNase 5 µM with RNase H 100 U/ml, 5-fold excess of miR-21): 24 h
- Incubation time to complete RNA degradation (miR-21; miR-21-miRNase 5 µM with RNase H 100 U/ml, 10-fold excess of miR-21): ≤ 48 h
- Level of cleavage of miR-21 by miRNase alone (miR-21; over 24 h, irrespective of 2-): 65–68%
- Level of cleavage of miR-21 by miRNase alone (miR-21; over 72 h, 2-): 90%
- τ/2, half-life time of miR-21 (miR-21; with RNase H 100 U/ml, miR-21 10 µM (2-fold RNA excess), pH 7.8): 0.7 ± 0.2 h
- τ/2, half-life time of miR-21 (miR-21; with RNase H 100 U/ml, miR-21 25 µM (5-fold RNA excess), pH 7.8): 5.4 ± 0.4 h
- τ/2, half-life time of miR-21 (miR-21; with RNase H 100 U/ml, miR-21 50 µM (10-fold RNA excess), pH 7.8): 4.7 ± 0.4 h
- τ/2, half-life time of miR-21 (miR-21; without RNase H, miR-21 10 µM (2-fold RNA excess), Tris-HCl pH 7.8, 40 mM KCl, 8 mM MgCl2, 1 mM DTT, time for 50% cleavage): 10.4 ± 0.5 h
- τ/2, half-life time of miR-21 (miR-21; without RNase H, miR-21 25 µM (5-fold RNA excess), pH 7.8): 16.2 ± 1.5 h
- τ/2, half-life time of miR-21 (miR-21; without RNase H, miR-21 50 µM (10-fold RNA excess), pH 7.8): 11.04 ± 0.8 h
- Increase in PTEN protein level (PTEN): 1.7 fold
- Necrosis of melanoma B16 cells (Annexin V-FITC-/PI+) (B16 melanoma cells; 1 µM with Lipofectamine, 24, 48, 72 h after transfection, maximum extent, flow cytometry): up to 7%
- Cells with signs of apoptosis (early and late) (B16 melanoma cells; 1 µM with Lipofectamine, 48 h after transfection (maximum), mean of four independent experiments): 28%
- Apoptotic cells relative to intact B16 cells (B16 melanoma cells; 1 µM, 48 h after transfection): six

Substance: h-ODN: miR-21-targeted hairpin deoxyribooligonucleotide AGTCTGATAAGCTACAAGTCAGCGAAAGCTGACTTG, unconjugated with the peptide (DNA, backbone and methylation of C not given here; hairpin at 3' end, unconjugated)
- Total extent of miR-21 cleavage in heteroduplex with h-ODN by RNase H alone (miR-21; RNase H 100 U/ml, h-ODN 5 µM, 2-fold excess of miR-21, plateau by 30 min): 45%
- Extent of miR-21 cleavage in heteroduplex with h-ODN by RNase H alone (miR-21; RNase H 100 U/ml, h-ODN 5 µM, 5-fold excess of miR-21): about 10%
- Extent of miR-21 cleavage in heteroduplex with h-ODN by RNase H alone (miR-21; RNase H 100 U/ml, h-ODN 5 µM, 10-fold excess of miR-21): ~5%
